Results as given in US7009050B2, “5-Substituted pyrimidine derivatives of conformationally locked nucleoside analogues” (The United States of America as represented by the …, priority 2000, dated 2006).
≈ marks a conversion by molar mass, not a printed value. Like-named read-outs stand apart in the source and are kept apart here.

What was measured:
herpes viruses = test: antiherpes activity of methanocarbathymine conformers (test not specified); format: cell-based
[1] = tested on: human foreskin fibroblast (HFF) cells
TK − VZV 07/1 strain = test: VZV plaque reduction, TK- VZV 07/1 strain; format: cell-based, Varicella zoster virus; settings: read-out: Antiviral activity (Plaque reduction) EC50, TK − VZV 07/1 strain
Protocol: (§1) The virus plaque reduction assay proceeds generally as follows. […] The drug concentrations utilized are usually 200 down to 0.06 μg/mL. The virus to be used is diluted in MEM containing 10% FBS to a desired concentration which will give 20–30 plaques/well. The media are then aspirated from the wells, and 0.2 mL of virus is added to each well in duplicate with 0.2 mL of media being added to drug toxicity wells. The plates are then incubated for 1 hr with shaking every 15 min. After the incubation period, an equal amount of 1% agarose is added to an equal volume of each drug dilution. […] The drug agarose mixture is applied to each well in 2 mL volume, and the plates are incubated for 3 days, after which the cells are stained with a […] of neutral red. At the end of the 4–6 h incubation period, the stain is aspirated, and plaques are counted using a stereomicroscope at 10× magnification.

TK + VZV YS strain = test: VZV plaque reduction, TK+ VZV YS strain; format: cell-based, Varicella zoster virus; settings: read-out: Antiviral activity (Plaque reduction) EC50, TK + VZV YS strain
HSV-1 [2] = test: cytopathogenic effect (CPE) inhibition assay, HSV-1 in HFF; settings: for HSV-1 (HFF) CPE inhib. EC50: HFF cells, CPE inhibition
TK + VZV OKA strain = test: VZV plaque reduction, TK+ VZV OKA strain; format: cell-based, Varicella zoster virus; settings: read-out: Antiviral activity (Plaque reduction) EC50, TK + VZV OKA strain
Protocol: as §1

TK − VZV YS/R strain = test: VZV plaque reduction, TK- VZV YS/R strain; format: cell-based, Varicella zoster virus; settings: read-out: Antiviral activity (Plaque reduction) EC50, TK − VZV YS/R strain
Protocol: as §1

HSV-2 [3] = test: cytopathogenic effect (CPE) inhibition assay, HSV-2 in HFF; settings: HFF cells
Cowpox [4] = settings: HFF cells; CPE inhibition
Vaccinia [5] = settings: HFF cells; plaque reduction
HSV-1 [6] = test: virus plaque reduction assay, HSV-1 in HFF
HSV-2 [7] = test: virus plaque reduction assay, HSV-2 in HFF
Cowpox [8] = settings: HFF cells; plaque reduction
Vaccinia [9] = settings: HFF cells; CPE inhibition
[10] = cytotoxicity (cell morphology MCC, cell growth CC50), Table 3; settings: for Cytotoxicity, Cell Morphology (MCC): minimum cytotoxic concentration causing microscopically detectable alteration of cell morphology; for CC50: read-out: Cytotoxicity CC50, cell growth
[11] = plaque reduction assay, more potent than acyclovir

In the case of `Cc1cn([C@@]23C[C@H](O)[C@@H](CO)[C@@H]2C3)c(=O)[nH]c1=O`, the “antiherpes activity (in words)” value (herpes viruses) is reported as “inactive”.
With `O=c1[nH]c(=O)n([C@H]2C[C@H](O)[C@]3(CO)C[C@H]23)cc1/C=C/Br` [(N)-MCBVDU (5)] the “HSV-1 (HFF) CPE inhib. CC50” value [1] was >100 µg/mL, the “HSV-2 (HFF) CPE inhib. CC50” value [1] was >100 µg/mL and the EC50 (TK − VZV 07/1 strain) was > 5000 nM. For the same compound, the EC50 (TK + VZV YS strain) was 7 nM, the “HSV-1 (HFF) CPE inhib. EC50” value (HSV-1 [2]) was 2.2 µg/mL and the EC50 (TK + VZV OKA strain) was 5 nM. For the same compound, the EC50 (TK − VZV YS/R strain) was > 5000 nM, the “HSV-2 (HFF) CPE inhib. EC50” value (HSV-2 [3]) was >100 µg/mL and the “SI (CC50/EC50), HSV-2 CPE inhib.” value (HSV-2 [3]) was 0.
With `O=c1[nH]c(=O)n(C2CC(O)C3(CO)CC23)cc1Br` (centres unmarked) [(N)-MCdBrU (3)] the “Cowpox (HFF) CPE inhib. EC50” value (Cowpox [4]) was 11.5 µg/mL, the “SI (CC50/EC50), Cowpox CPE inhib.” value (Cowpox [4]) was 8.7 and the “HSV-1 (HFF) CPE inhib. CC50” value [1] was >100 µg/mL. For the same compound, the “HSV-1 (HFF) plaque red'n CC50” value [1] was >100 µg/mL, the “HSV-2 (HFF) CPE inhib. CC50” value [1] was >100 µg/mL and the “HSV-2 (HFF) plaque red'n CC50” value [1] was >100 µg/mL. The “Cowpox (HFF) CPE inhib. CC50” value ([1]; HFF cells, column of Cowpox CPE inhibition) was >100 µg/mL, the “Cowpox (HFF) Plaque red'n CC50” value ([1]; HFF cells, column of Cowpox plaque reduction) was >100 µg/mL and the “Vaccinia (HFF) CPE inhib. CC50” value ([1]; HFF cells, column of Vaccinia CPE inhibition) was >100 µg/mL. The “Vaccinia (HFF) Plaque red'n CC50” value ([1]; HFF cells, column of Vaccinia plaque reduction) was >100 µg/mL, the “SI (CC50/EC50), Vaccinia Plaque red'n” value (Vaccinia [5]) was 38.5 and the “Vaccinia (HFF) Plaque red'n EC50” value (Vaccinia [5]) was 2.6 µg/mL. The EC50 (TK − VZV 07/1 strain) was 107000 nM, the “HSV-1 (HFF) plaque red'n EC50” value (HSV-1 [6]; HFF cells, plaque reduction) was 0.03 µg/mL and the “SI (CC50/EC50), HSV-1 plaque red'n” value (HSV-1 [6]; HFF cells, plaque reduction) was 3333. For the same compound, the EC50 (TK + VZV YS strain) was 30 nM, the “HSV-1 (HFF) CPE inhib. EC50” value (HSV-1 [2]) was 0.39 µg/mL and the EC50 (TK + VZV OKA strain) was 890 nM. For the same compound, the “HSV-2 (HFF) plaque red'n EC50” value (HSV-2 [7]; HFF cells, plaque reduction) was 0.12 µg/mL, the “SI (CC50/EC50), HSV-2 plaque red'n” value (HSV-2 [7]; HFF cells, plaque reduction) was 833 and the EC50 (TK − VZV YS/R strain) was 37000 nM. The “Cowpox (HFF) Plaque red'n EC50” value (Cowpox [8]) was 3.4 µg/mL, the “SI (CC50/EC50), Cowpox Plaque red'n” value (Cowpox [8]) was 29.4 and the “HSV-2 (HFF) CPE inhib. EC50” value (HSV-2 [3]) was 0.70 µg/mL. The “SI (CC50/EC50), HSV-2 CPE inhib.” value (HSV-2 [3]) was >142, the “SI (CC50/EC50), Vaccinia CPE inhib.” value (Vaccinia [9]) was >156 and the “Vaccinia (HFF) CPE inhib. EC50” value (Vaccinia [9]) was 0.64 µg/mL.
With `O=c1[nH]c(=O)n([C@H]2C[C@H](O)[C@]3(CO)C[C@H]23)cc1I` [(N)-MCdIU (4)] the “HSV-1 (HFF) CPE inhib. CC50” value ([1]; HFF cells, column of HSV-1 CPE inhibition) was >100 µg/mL, the “HSV-2 (HFF) CPE inhib. CC50” value ([1]; HFF cells, column of HSV-2 CPE inhibition) was >100 µg/mL and the EC50 (TK − VZV 07/1 strain) was > 5000 nM. The “HSV-1 (HFF) CPE inhib. EC50” value (HSV-1 [2]) was >100 µg/mL, the EC50 (TK + VZV OKA strain) was 160 nM and the EC50 (TK − VZV YS/R strain) was 3000 nM. The “HSV-2 (HFF) CPE inhib. EC50” value (HSV-2 [3]) was 3.3 µg/mL, the “SI (CC50/EC50), HSV-2 CPE inhib.” value (HSV-2 [3]) was 30.3 and the “Cytotoxicity, Cell Morphology (MCC)” value [10] was >5 μM. For the same compound, the CC50 [10] was > 200000 nM.
For `Cc1cn([C@H]2C[C@H](O)[C@]3(CO)C[C@H]23)c(=O)[nH]c1=O` [(North)-methanocarbathymine, reference compound], the “potency relative to acyclovir against HSV-1” value (HSV-1 [6]; [11]) was 30 times and the “potency relative to acyclovir against HSV-2” value (HSV-2 [7]; [11]) was 30 times.
In the case of `Nc1nc2c(ncn2COCCO)c(=O)[nH]1` [ACV, acyclovir, reference compound], the EC50 (HSV-1 [2]; Human alphaherpesvirus 1, HFF, read-out: HSV-1 (HFF) CPE inhib. EC50) is reported as 0.5 µg/mL (≈ 2.22 µM).
In the case of `O=c1[nH]c(=O)n([C@H]2C[C@H](O)[C@@H](CO)O2)cc1/C=C/Br` [BVDU, reference compound], the EC50 (TK − VZV 07/1 strain) is reported as > 150000 nM, the EC50 (TK + VZV YS strain) is reported as 8 nM and the EC50 (TK + VZV OKA strain) is reported as 5 nM. The EC50 (TK − VZV YS/R strain) was > 150000 nM, the “Cytotoxicity, Cell Morphology (MCC)” value [10] was >150 μM and the CC50 [10] was > 400000 nM.
